# According to ChEMBL document CHEMBL1201861, “Genomics of Drug Sensitity in Cancer screening data, Wellcome Trust Sanger Institute”:
# Experiments:
# Test in all cases: cells
# TE-1 = type: functional, cell-based, Homo sapiens; conditions: Homo sapiens, TE-1;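 note: growth inhibition of the human TE-1 cell line, read out with a cell viability assay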
# Description: SANGER: Inhibition of human TE-1 cell growth in a cell viability assay.
# COLO-668 = type: functional, cell-based, Homo sapiens; conditions: Homo sapiens, COLO-668
# Description: SANGER: Inhibition of human COLO-668 cell growth in a cell viability assay.
# SW780 = type: functional, cell-based, Homo sapiens; conditions: Homo sapiens, SW780;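 note: growth inhibition of the cells, read out with a cell viability assay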
# Description: SANGER: Inhibition of human SW780 cell growth in a cell viability assay.
# COLO-792 = type: functional, cell-based, Homo sapiens; conditions: Homo sapiens, COLO-792
# Description: SANGER: Inhibition of human COLO-792 cell growth in a cell viability assay.
# HuO-3N1 = type: functional, cell-based, Homo sapiens; conditions: Homo sapiens, HuO-3N1;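 note: cell viability readout used to measure how strongly compounds suppress proliferation of human HuO-3N1 cells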
# Description: SANGER: Inhibition of human HuO-3N1 cell growth in a cell viability assay.
# LB2241-RCC = type: functional, cell-based, Homo sapiens; conditions: Homo sapiens, LB2241-RCC;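 note: cell viability assay measuring how strongly the cultured human renal carcinoma line is prevented from growing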
# Description: SANGER: Inhibition of human LB2241-RCC cell growth in a cell viability assay.
# PC-3 = type: functional, cell-based, Homo sapiens; conditions: Homo sapiens, PC-3;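 note: cell viability assay measuring growth inhibition of PC-3 cells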
# Description: SANGER: Inhibition of human PC-3 cell growth in a cell viability assay.
# MG-63 = type: functional, cell-based, Homo sapiens; conditions: Homo sapiens, MG-63;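 note: growth inhibition of human MG-63 cells, read out with a cell viability assay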
# Description: SANGER: Inhibition of human MG-63 cell growth in a cell viability assay.
# A4-Fuk = type: functional, cell-based; conditions: Homo sapiens;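 note: growth inhibition of A4-Fuk cells, read out by a cell viability assay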
# Description: SANGER: Inhibition of human A4-Fuk cell growth in a cell viability assay.
# HMV-2 cell line = type: functional, cell-based, Homo sapiens; conditions: Homo sapiens, HMV-2;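 note: growth inhibition of HMV-II cells, read out with a cell viability assay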
# Description: SANGER: Inhibition of human HMV-II cell growth in a cell viability assay.
# LXF-289 cell line = type: functional, cell-based, Homo sapiens; conditions: Homo sapiens, LXF-289
# Description: SANGER: Inhibition of human LXF-289 cell growth in a cell viability assay.
# 697 = type: functional, cell-based; conditions: Homo sapiens
# Description: SANGER: Inhibition of human 697 cell growth in a cell viability assay.
# DEL = type: functional, cell-based; conditions: Homo sapiens;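 note: growth inhibition of the human DEL cell line, read out with a cell viability assay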
# Description: SANGER: Inhibition of human DEL cell growth in a cell viability assay.
# K562 = type: functional, cell-based; conditions: Homo sapiens
# Description: SANGER: Inhibition of human K-562 cell growth in a cell viability assay.
# A2058 = type: functional, cell-based; conditions: Homo sapiens;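 note: reduction of A2058 cell growth, read out with a viability assay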
# Description: SANGER: Inhibition of human A2058 cell growth in a cell viability assay.
# NCI-H28 = type: functional, cell-based, Homo sapiens; conditions: Homo sapiens, NCI-H28;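 note: growth inhibition of human NCI-H28 cells, read out as cell viability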
# Description: SANGER: Inhibition of human NCI-H28 cell growth in a cell viability assay.
# EW-11 = type: functional, cell-based, Homo sapiens; conditions: Homo sapiens, EW-11;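 note: growth inhibition of human EW-11 cells, measured with a cell viability assay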
# Description: SANGER: Inhibition of human EW-11 cell growth in a cell viability assay.
# 647-V = type: functional, cell-based, Homo sapiens; conditions: Homo sapiens, 647-V;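 note: growth inhibition of 647-V cells, read out with a cell viability assay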
# Description: SANGER: Inhibition of human 647-V cell growth in a cell viability assay.
# SCC-9 = type: functional, cell-based, Homo sapiens; conditions: Homo sapiens, SCC-9;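 note: Read-out is a cell viability assay, with values giving inhibition of cell growth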
# Description: SANGER: Inhibition of human SCC-9 cell growth in a cell viability assay.
# SNU-C2B = type: functional, cell-based, Homo sapiens; conditions: Homo sapiens, SNU-C2B;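 note: cell viability readout used to measure compound-driven suppression of SNU-C2B cell proliferation, IC50 marking half-maximal growth inhibition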
# Description: SANGER: Inhibition of human SNU-C2B cell growth in a cell viability assay.
# LOX IMVI = type: functional, cell-based; conditions: Homo sapiens
# Description: SANGER: Inhibition of human LOXIMVI cell growth in a cell viability assay.
# NCI-H1155 = type: functional, cell-based; conditions: Homo sapiens;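 note: cell growth inhibition measured by a viability assay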
# Description: SANGER: Inhibition of human NCI-H1155 cell growth in a cell viability assay.
# HCC1937 = type: functional, cell-based, Homo sapiens; conditions: Homo sapiens, HCC1937;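 note: growth inhibition measured with a cell viability read-out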
# Description: SANGER: Inhibition of human HCC1937 cell growth in a cell viability assay.
# SW48 = type: functional, cell-based, Homo sapiens; conditions: Homo sapiens, SW48;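 note: growth inhibition of SW48 cells, read out with a cell viability assay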
# Description: SANGER: Inhibition of human SW48 cell growth in a cell viability assay.
# UACC-62 = type: functional, cell-based, Homo sapiens; conditions: Homo sapiens, UACC-62;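 note: growth inhibition of human UACC-62 cells, read out by a cell viability assay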
# Description: SANGER: Inhibition of human UACC-62 cell growth in a cell viability assay.
# CAL-27 = type: functional, cell-based, Homo sapiens; conditions: Homo sapiens, CAL-27;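 note: Viability-based readout, IC50 reflecting inhibition of CAL-27 cell growth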
# Description: SANGER: Inhibition of human CAL-27 cell growth in a cell viability assay.
# SW1463 = type: functional, cell-based, Homo sapiens; conditions: Homo sapiens, SW1463;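 note: growth inhibition of SW1463 cells, determined with a cell viability assay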
# Description: SANGER: Inhibition of human SW1463 cell growth in a cell viability assay.
# COLO-678 = type: functional, cell-based, Homo sapiens; conditions: Homo sapiens, COLO-678
# Description: SANGER: Inhibition of human COLO-678 cell growth in a cell viability assay.
# Hs-578T = type: functional, cell-based, Homo sapiens; conditions: Homo sapiens, Hs-578T
# Description: SANGER: Inhibition of human Hs-578-T cell growth in a cell viability assay.
# KARPAS-299 = type: functional, cell-based; conditions: Homo sapiens
# Description: SANGER: Inhibition of human KARPAS-299 cell growth in a cell viability assay.
# COR-L23 = type: functional, cell-based, Homo sapiens; conditions: Homo sapiens, COR-L23;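 note: cell viability assay measuring how strongly compounds suppress growth of COR-L23 cells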
# Description: SANGER: Inhibition of human COR-L23 cell growth in a cell viability assay.
# NCI-H1355 = type: functional, cell-based, Homo sapiens; conditions: Homo sapiens, NCI-H1355;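 note: growth inhibition of human NCI-H1355 cells, read out by a cell viability assay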
# Description: SANGER: Inhibition of human NCI-H1355 cell growth in a cell viability assay.
# MMAC-SF = type: functional, cell-based, Homo sapiens; conditions: Homo sapiens, MMAC-SF;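 note: growth inhibition of human MMAC-SF cells, read out with a cell viability assay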
# Description: SANGER: Inhibition of human MMAC-SF cell growth in a cell viability assay.
# OCUB-M = type: functional, cell-based, Homo sapiens; conditions: Homo sapiens, OCUB-M;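 note: growth inhibition of the cancer cell line, read out through a cell viability assay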
# Description: SANGER: Inhibition of human OCUB-M cell growth in a cell viability assay.
# Calu-6 = type: functional, cell-based, Homo sapiens; conditions: Homo sapiens, Calu-6;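 note: growth of human Calu-6 cells, read out by a cell viability assay, IC50 marking inhibition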
# Description: SANGER: Inhibition of human Calu-6 cell growth in a cell viability assay.
# OE19 = type: functional, cell-based, Homo sapiens; conditions: Homo sapiens, OE19;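 note: growth inhibition of OE19 cells, measured through a cell viability read-out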
# Description: SANGER: Inhibition of human OE19 cell growth in a cell viability assay.
# HD-MY-Z = type: functional, cell-based, Homo sapiens; conditions: Homo sapiens, HD-MY-Z;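 note: growth inhibition of HD-MY-Z cells, read out with a cell viability assay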
# Description: SANGER: Inhibition of human HD-MY-Z cell growth in a cell viability assay.
# NCI-H1650 = type: functional, cell-based, Homo sapiens; conditions: Homo sapiens, NCI-H1650;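 note: growth inhibition of human NCI-H1650 cells measured by a cell viability assay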
# Description: SANGER: Inhibition of human NCI-H1650 cell growth in a cell viability assay.
# OVCAR-5 = type: functional, cell-based, Homo sapiens; conditions: Homo sapiens, OVCAR-5;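 note: growth inhibition of human OVCAR-5 cells, read out with a cell viability assay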
# Description: SANGER: Inhibition of human OVCAR-5 cell growth in a cell viability assay.
# MCF7 = type: functional, cell-based, Homo sapiens; conditions: Homo sapiens, MCF7;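 note: growth inhibition of human MCF7 cells, read out with a cell viability assay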
# Description: SANGER: Inhibition of human MCF7 cell growth in a cell viability assay.
# BHY = type: functional, cell-based, Homo sapiens; conditions: Homo sapiens, BHY;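 note: cell growth inhibition read out by a viability assay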
# Description: SANGER: Inhibition of human BHY cell growth in a cell viability assay.
# RXF 393 = type: functional, cell-based; conditions: Homo sapiens;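 note: growth inhibition of human RXF 393 cells, read out with a cell viability assay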
# Description: SANGER: Inhibition of human RXF393 cell growth in a cell viability assay.
# ML-2 = type: functional, cell-based; conditions: Homo sapiens;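 note: growth inhibition of ML-2 cells, measured with a cell viability readout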
# Description: SANGER: Inhibition of human ML-2 cell growth in a cell viability assay.
# LU-99A = type: functional, cell-based, Homo sapiens; conditions: Homo sapiens, LU-99A;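 note: growth inhibition of LU-99A cells, read out with a cell viability assay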
# Description: SANGER: Inhibition of human LU-99A cell growth in a cell viability assay.
# PC-14 = type: functional, cell-based, Homo sapiens; conditions: Homo sapiens, PC-14;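 note: cell viability assay measuring inhibition of PC-14 cell growth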
# Description: SANGER: Inhibition of human PC-14 cell growth in a cell viability assay.
# DMS-79 = type: functional, cell-based; conditions: Homo sapiens;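 note: growth inhibition measured with a cell viability assay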
# Description: SANGER: Inhibition of human DMS-79 cell growth in a cell viability assay.
# HEL = type: functional, cell-based, Homo sapiens; conditions: Homo sapiens, HEL;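 note: growth inhibition of HEL cells, read out with a cell viability assay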
# Description: SANGER: Inhibition of human HEL cell growth in a cell viability assay.
# RD = type: functional, cell-based, Homo sapiens; conditions: Homo sapiens, RD
# Description: SANGER: Inhibition of human RD cell growth in a cell viability assay.
# ES6 = type: functional, cell-based, Homo sapiens; conditions: Homo sapiens, ES6;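 note: growth inhibition of human ES6 cells, read out with a cell viability assay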
# Description: SANGER: Inhibition of human ES6 cell growth in a cell viability assay.
# Becker = type: functional, cell-based, Homo sapiens; conditions: Homo sapiens, Becker;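 note: growth inhibition of Becker cells, read out with a cell viability assay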
# Description: SANGER: Inhibition of human Becker cell growth in a cell viability assay.
# S-117 = type: functional, cell-based, Homo sapiens; conditions: Homo sapiens, S-117
# Description: SANGER: Inhibition of human S-117 cell growth in a cell viability assay.
# KP-N-YS = type: functional, cell-based; conditions: Homo sapiens;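 note: cell viability assay measuring inhibition of cell line growth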
# Description: SANGER: Inhibition of human KP-N-YS cell growth in a cell viability assay.
smiles,measurement,setting,value
CN(Cc1cnc2nc(N)nc(N)c2n1)c1ccc(C(=O)N[C@@H](CCC(=O)O)C(=O)O)cc1 [METHOTREXATE],IC50,TE-1,> 200 nM
same,IC50,COLO-668,> 200 nM
same,IC50,SW780,116 nM
same,IC50,COLO-792,> 200 nM
same,IC50,HuO-3N1,89.1 nM
same,IC50,LB2241-RCC,> 200 nM
same,IC50,PC-3,> 200 nM
same,IC50,MG-63,197 nM
same,IC50,A4-Fuk,38.2 nM
same,IC50,HMV-2 cell line,> 200 nM
same,IC50,LXF-289 cell line,> 200 nM
same,IC50,697,12.6 nM
same,IC50,DEL,3.12 nM
same,IC50,K562,> 200 nM
same,IC50,A2058,> 200 nM
same,IC50,NCI-H28,> 200 nM
same,IC50,EW-11,> 200 nM
same,IC50,647-V,> 200 nM
same,IC50,SCC-9,> 200 nM
same,IC50,SNU-C2B,145 nM
same,IC50,LOX IMVI,> 200 nM
same,IC50,NCI-H1155,> 200 nM
same,IC50,HCC1937,> 200 nM
same,IC50,SW48,> 200 nM
same,IC50,UACC-62,> 200 nM
same,IC50,CAL-27,> 200 nM
same,IC50,SW1463,> 200 nM
same,IC50,COLO-678,> 200 nM
same,IC50,Hs-578T,> 200 nM
same,IC50,KARPAS-299,> 200 nM
same,IC50,COR-L23,122 nM
same,IC50,NCI-H1355,> 200 nM
same,IC50,MMAC-SF,> 200 nM
same,IC50,OCUB-M,> 200 nM
same,IC50,Calu-6,> 200 nM
same,IC50,OE19,> 200 nM
same,IC50,HD-MY-Z,> 200 nM
same,IC50,NCI-H1650,> 200 nM
same,IC50,OVCAR-5,> 200 nM
same,IC50,MCF7,> 200 nM
same,IC50,BHY,> 200 nM
same,IC50,RXF 393,> 200 nM
same,IC50,ML-2,4.97 nM
same,IC50,LU-99A,> 200 nM
same,IC50,PC-14,> 200 nM
same,IC50,DMS-79,> 200 nM
same,IC50,HEL,11.5 nM
same,IC50,RD,> 200 nM
same,IC50,ES6,> 200 nM
same,IC50,Becker,> 200 nM
same,IC50,S-117,> 200 nM
same,IC50,KP-N-YS,> 200 nM
C[C@]1(O)C[C@@H](c2nc(-c3ccc4ccc(-c5ccccc5)nc4c3)c3c(N)nccn32)C1 [LINSITINIB],IC50,TE-1,1710 nM
same,IC50,COLO-668,847 nM
same,IC50,SW780,> 2560 nM
same,IC50,COLO-792,> 2560 nM
same,IC50,HuO-3N1,> 2560 nM
same,IC50,LB2241-RCC,> 2560 nM
same,IC50,PC-3,> 2560 nM
same,IC50,MG-63,> 2560 nM
same,IC50,A4-Fuk,28.1 nM
same,IC50,HMV-2 cell line,88.5 nM
same,IC50,LXF-289 cell line,> 2560 nM
same,IC50,697,> 2560 nM
same,IC50,DEL,> 2560 nM
same,IC50,K562,> 2560 nM
same,IC50,A2058,> 2560 nM
same,IC50,NCI-H28,> 2560 nM
same,IC50,EW-11,284 nM
same,IC50,647-V,> 2560 nM
same,IC50,SCC-9,> 2560 nM
same,IC50,SNU-C2B,> 2560 nM
same,IC50,LOX IMVI,> 2560 nM
same,IC50,NCI-H1155,> 2560 nM
same,IC50,HCC1937,> 2560 nM
same,IC50,SW48,> 2560 nM
same,IC50,UACC-62,> 2560 nM
same,IC50,CAL-27,> 2560 nM
same,IC50,SW1463,> 2560 nM
same,IC50,COLO-678,> 2560 nM
same,IC50,Hs-578T,> 2560 nM
same,IC50,KARPAS-299,> 2560 nM
same,IC50,COR-L23,> 2560 nM
same,IC50,NCI-H1355,181 nM
same,IC50,MMAC-SF,> 2560 nM
same,IC50,OCUB-M,> 2560 nM
same,IC50,Calu-6,> 2560 nM
same,IC50,OE19,> 2560 nM
same,IC50,HD-MY-Z,> 2560 nM
same,IC50,NCI-H1650,> 2560 nM
same,IC50,OVCAR-5,> 2560 nM
same,IC50,MCF7,> 2560 nM
same,IC50,BHY,> 2560 nM
same,IC50,RXF 393,> 2560 nM
same,IC50,ML-2,159 nM
same,IC50,LU-99A,> 2560 nM
same,IC50,PC-14,> 2560 nM
same,IC50,DMS-79,> 2560 nM
same,IC50,HEL,> 2560 nM
same,IC50,RD,1260 nM
same,IC50,ES6,911 nM
same,IC50,Becker,> 2560 nM
same,IC50,S-117,> 2560 nM
same,IC50,KP-N-YS,> 2560 nM
